Source: patent US10532984B2, “Pyridonecarboxylic acid derivative or salt thereof” (priority 2016, dated 2020)
In brackets after ≈: the same amount, converted by molar mass.

How the values were obtained:
[1] = tested on: MRSA9532; assay: Antibacterial effect, MIC by standard method of Japanese Society of Chemotherapy; assay type: cell-based, methicillin-resistant Staphylococcus aureus; conditions: Staphylococcus aureus
Procedure: (§1) The minimum inhibitory concentrations (MIC: μg/mL) of the compounds set forth in Table 1 were measured according to the standard method of Japanese Society of Chemotherapy (Japanese Journal of Chemotherapy, 56 (1), 49, 2008). […] P. aeruginosa is a clinical isolate given by Kameda Medical Center. C. difficile is a clinical isolate purchased from International Health Management Associates, Inc. (IHMA).

[2] = tested on: MRSA9522; assay: as above; assay type: cell-based, methicillin-resistant Staphylococcus aureus; conditions: Staphylococcus aureus
Procedure: as §1

[3] = tested on: P. aeruginosa 2014-16; assay: as above; assay type: cell-based; conditions: Pseudomonas aeruginosa, 201416; P. aeruginosa 2014-16, clinical isolate
Procedure: as §1

[4] = tested on: C. difficile 2015-13; assay: as above; assay type: cell-based; conditions: Clostridioides difficile, 201513; C. difficile 2015-13, clinical isolate
Procedure: as §1

[5] = tested on: C. difficile 2015-12; assay: as above; assay type: cell-based; conditions: Clostridioides difficile, 201512; C. difficile 2015-12, clinical isolate
Procedure: as §1

[6] = tested on: P. aeruginosa 2014-17; assay: Combined antibacterial effect with drug efflux pump inhibitor PAβN, broth microdilution MIC; assay type: cell-based; conditions: for MIC value P. aeruginosa 2014-17 PAβN +: P. aeruginosa 2014-17, with PAβN 50 μg/mL; for MIC value P. aeruginosa 2014-17 PAβN −: P. aeruginosa 2014-17, without PAβN
Procedure: (§2) The method used was a broth microdilution method according to the standard method of the Japanese Society of Chemotherapy (Chemotherapy, 38 (1), 102, 1990). In the condition which added H-Phe-Arg-βNA, 2HCl (PAβN) (50 μg/mL) as drug efflux pump inhibitor, the minimum inhibitory concentrations (MIC: μg/mL) was measured. The minimum inhibitory concentrations (MIC: μg/mL) of the conventional antimicrobial agents levofloxacin and cefepime as a positive control compound and a negative control compound for the evaluation were also measured similarly. P. aeruginosa is a clinical isolate given by […] Medical Center.

[7] = tested on: P. aeruginosa 08-05; assay: as above; assay type: cell-based; conditions: for P. aeruginosa 08-05 MIC ratio: P. aeruginosa 08-05, PAβN(−) MIC/PAβN(+) MIC; for MIC value P. aeruginosa 08-05 PAβN +: P. aeruginosa 08-05, with PAβN 50 μg/mL; for MIC value P. aeruginosa 08-05 PAβN −: P. aeruginosa 08-05, without PAβN
Procedure: as §2

[8] = tested on: P. aeruginosa PA01; assay: as above; assay type: cell-based; conditions: for MIC value P. aeruginosa PA01 PAβN +: P. aeruginosa PA01, with PAβN 50 μg/mL; for MIC value P. aeruginosa PA01 PAβN −: P. aeruginosa PA01, without PAβN
Procedure: as §2

Row | MIC [1] [µg/mL] | MIC [2] [µg/mL] | MIC [3] [µg/mL] | MIC [4] [µg/mL] | MIC [5] [µg/mL] | MIC value P. aeruginosa 2014-17 PAβN + [6] [µg/mL] | MIC value P. aeruginosa 2014-17 PAβN − [6] [µg/mL] | P. aeruginosa 08-05 MIC ratio [7] | MIC value P. aeruginosa 08-05 PAβN + [7] [µg/mL] | MIC value P. aeruginosa 08-05 PAβN − [7] [µg/mL] | MIC value P. aeruginosa PA01 PAβN + [8] [µg/mL] | MIC value P. aeruginosa PA01 PAβN − [8] [µg/mL] | SMILES
1 | 4 (≈ 9.12 µM) | 4 (≈ 9.12 µM) | 8 (≈ 18.2 µM) | 8 (≈ 18.2 µM) | 16 (≈ 36.5 µM) | – | – | – | – | – | – | – | Nc1cc(-n2cc(C(=O)O)c(=O)c3cc(F)c(N4CC(N)C4)c(Cl)c32)c(F)cc1F [Comparative Compound 1, 7-(3-Aminoazetidin-1-yl)-1-(5-amino-2,4-difluorophenyl)-8-chloro-6-fluoro-4-oxo-1,4-dihydroquinoline-3-carboxylic acid]
2 | – | – | – | – | – | 4 | 16 | 4 | 0.25 | 1 | 0.25 | 0.25 | CNC1CN(c2c(F)cc3c(=O)c(C(=O)O)cn(-c4cc(N)c(F)cc4CO)c3c2C)C1 [Example 70]
3 | 2 (≈ 4.42 µM) | 1 (≈ 2.21 µM) | 16 (≈ 35.3 µM) | 4 (≈ 8.83 µM) | 8 (≈ 17.7 µM) | – | – | – | – | – | – | – | CNC1CN(c2c(F)cc3c(=O)c(C(=O)O)cn(-c4cc(N)c(F)cc4F)c3c2Cl)C1 [Comparative Compound 2, 1-(5-amino-2,4-difluorophenyl)-8-chloro-6-fluoro-7-(3-methylaminoazetidin-1-yl)-4-oxo-1,4-dihydroquinoline-3-carboxylic acid]

More lines, now with the values behind:

Row | SMILES | MIC [1] [µg/mL] | MIC [2] [µg/mL] | MIC [3] [µg/mL] | MIC [4] [µg/mL] | MIC [5] [µg/mL] | MIC value P. aeruginosa 2014-17 PAβN + [6] [µg/mL] | MIC value P. aeruginosa 2014-17 PAβN − [6] [µg/mL] | P. aeruginosa 08-05 MIC ratio [7] | MIC value P. aeruginosa 08-05 PAβN + [7] [µg/mL] | MIC value P. aeruginosa 08-05 PAβN − [7] [µg/mL] | MIC value P. aeruginosa PA01 PAβN + [8] [µg/mL] | MIC value P. aeruginosa PA01 PAβN − [8] [µg/mL]
4 | O=C(O)c1cn(C2CC2)c2cc(N3CCNCC3)c(F)cc2c1=O [Ciprofloxacin, ciprofloxacin] | > 128 | 128 (≈ 386 µM) | – | – | – | – | – | – | – | – | – | –
5 | Cc1c(F)c(N2CC(O)C2)c(Cl)c2c1c(=O)c(C(=O)O)cn2-c1cc(N)c(F)cc1CO [Example 113, 1-[5-Amino-4-fluoro-2-(hydroxymethyl)phenyl]-8-chloro-6-fluoro-7-(3-hydroxyazetidin-1-yl)-5-methyl-4-oxo-1,4-dihydroquinoline-3-carboxylic acid] | 1 (≈ 2.15 µM) | 1 (≈ 2.15 µM) | 4 (≈ 8.59 µM) | 0.06 (≈ 0.129 µM) | 0.12 (≈ 0.258 µM) | – | – | – | – | – | – | –
6 | CNC1CN(c2c(F)c(C)c3c(=O)c(C(=O)O)cn(-c4cc(N)c(F)cc4CO)c3c2Cl)C1 [Example 104, 1-[5-Amino-4-fluoro-2-(hydroxymethyl)phenyl]-8-chloro-6-fluoro-5-methyl-7-(3-methylaminoazetidin-1-yl)-4-oxo-1,4-dihydroquinoline-3-carboxylic acid] | 1 (≈ 2.09 µM) | 1 (≈ 2.09 µM) | 2 (≈ 4.18 µM) | 0.5 (≈ 1.04 µM) | 1 (≈ 2.09 µM) | 0.25 | 4 | 8 | 0.06 | 0.5 | 0.016 | 0.12
7 | Cc1c(F)c(N2CC(N)C2)c(C)c2c1c(=O)c(C(=O)O)cn2-c1cc(N)c(F)cc1CO [Example 100, 7-(3-Aminoazetidin-1-yl)-1-[5-amino-4-fluoro-2-(hydroxymethyl)phenyl]-5,8-dimethyl-6-fluoro-4-oxo-1,4-dihydroquinoline-3-carboxylic acid] | – | – | – | – | – | 0.25 | 2 | 8 | 0.06 | 0.5 | 0.016 | 0.12
8 | CO/N=C(\C(=O)N[C@@H]1C(=O)N2C(C(=O)[O-])=C(C[N+]3(C)CCCC3)CS[C@H]12)c1csc(N)n1 [Cefepime, cefepime, reference compound] | – | – | – | – | – | 16 | 64 | 4 | 2 | 8 | 0.5 | 1
9 | C[C@H]1COc2c(N3CCN(C)CC3)c(F)cc3c(=O)c(C(=O)O)cn1c23 [Levofloxacin, levofloxacin, reference compound] | > 128 | > 128 | > 128 | > 128 | > 128 | 1 | 32 | 32 | 0.12 | 4 | 0.06 | 0.5
